Data on 9 molecules can be found in PMC7466750, “Crystal structures of human ENPP1 in apo and bound forms” (Acta Crystallographica. Section D, Structural Biology, 2020).

Experiment [1] deals with T1, hENPP1 (Homo sapiens, UniProt P22413).
T1 sequence (P22413 98-925): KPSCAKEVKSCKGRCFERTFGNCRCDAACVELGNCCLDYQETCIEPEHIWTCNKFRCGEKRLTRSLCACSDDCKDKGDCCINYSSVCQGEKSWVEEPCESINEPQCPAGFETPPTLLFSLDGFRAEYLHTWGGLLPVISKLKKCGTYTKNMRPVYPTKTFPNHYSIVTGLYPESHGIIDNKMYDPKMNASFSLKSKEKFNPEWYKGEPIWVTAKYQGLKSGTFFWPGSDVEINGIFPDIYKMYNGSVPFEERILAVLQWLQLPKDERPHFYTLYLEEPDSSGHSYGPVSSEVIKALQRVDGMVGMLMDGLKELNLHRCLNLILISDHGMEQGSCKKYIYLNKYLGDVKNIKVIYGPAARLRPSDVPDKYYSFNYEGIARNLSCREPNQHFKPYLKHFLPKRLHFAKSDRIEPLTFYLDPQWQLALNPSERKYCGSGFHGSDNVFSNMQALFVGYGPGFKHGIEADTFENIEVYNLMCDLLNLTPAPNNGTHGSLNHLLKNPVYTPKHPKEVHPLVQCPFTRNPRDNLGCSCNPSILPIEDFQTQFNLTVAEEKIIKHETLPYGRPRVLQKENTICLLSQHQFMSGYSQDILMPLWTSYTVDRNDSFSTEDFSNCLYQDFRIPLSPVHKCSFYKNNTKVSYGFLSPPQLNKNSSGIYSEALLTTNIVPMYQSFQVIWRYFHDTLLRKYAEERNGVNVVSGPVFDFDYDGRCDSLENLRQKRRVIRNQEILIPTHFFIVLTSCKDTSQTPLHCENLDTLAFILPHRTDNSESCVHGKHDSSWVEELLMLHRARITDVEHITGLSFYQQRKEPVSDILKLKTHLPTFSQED
Briefly: Differential scanning fluorimetry (DSF) thermal shift of hENPP1. Type of experiment: binding. To be noted: for ΔT m: DSF. The method, then: DSF experiments were performed using a Bio-Rad CFX96 thermocycler, with the fluorescence intensity measured with excitation and emission at 490 and 570 nm, respectively. Plates were heated from 20 to 100°C at a heating rate of 1.0°C min^−1. Protein was present at a final concentration of 15 µg ml^−1. The well volume was 20 µl. The buffer was 50 mM Tris–HCl pH 7.4, 150 mM NaCl, 50 µM ZnCl2. […] Ligands and controls were present in triplicate.
For orientation: In DSF a fluorescence change marks the thermal transition of the protein.

Experiment [2] addresses T1, hENPP1. Briefly: Surface plasmon resonance (SPR) binding to immobilised hENPP1 98–925, 1:1 steady-state affinity model. Also noted: hENPP1^98–925 was coupled to the chip surface at 25°C; made in house; host or cells: 293-F cells (human), with 5 µM kifunensine. As to the method:
The protein was diluted to 25 µg ml^−1 at pH 6.0 [10 mM 2-(N-morpholino)ethanesulfonic acid (MES), 0.005%(v/v) Tween 20] and injected to an immobilization level of 8–10 kRU. The surface was then blocked with 1 M ethanolamine pH 8.0 for 7 min. SPR experiments were performed at 25°C in SPR running buffer consisting of 50 mM Tris pH 7.4, 150 mM NaCl, 50 µM ZnCl2, 0.005%(v/v) Tween 20, 2%(v/v) DMSO. When performing dose–response testing, analytes were serially diluted (twofold or threefold), injected for 30–90 s contact time and allowed to dissociate back to baseline. The flow rate was 60 µl min^−1. Binding sensorgrams were processed, solvent-corrected and double-referenced using the Scrubber software (BioLogic Software, Australia). Responses at equilibrium for each analyte were fitted to a 1:1 steady-state affinity model that was available within Scrubber.

The mark [3] stands for this setting: Determined by SPR, triplicates ± SD, 25°C, pH 7.4.

With `Nc1nc2c(ncn2[C@@H]2O[C@@H]3COP(=O)(O)O[C@H]4[C@@H](O)[C@H](n5cnc6c(N)ncnc65)O[C@@H]4COP(=O)(O)O[C@H]3[C@H]2O)c(=O)[nH]1` [3′3′-cGAMP], the ΔT m entry on hENPP1 [1] (tested at 10 µM) is reported as “+1.2”. Besides, the results for the Kd on hENPP1 [2] (setting [3]) and at hENPP1 [2] (SPR) were 1300 ± 300 nM and 1300 nM, respectively.

As for `Nc1ncnc2c1ncn2[C@@H]1O[C@H](COP(=O)(O)OP(=O)(O)O)[C@@H](O)[C@H]1O` [ADP], the ΔT m entry at hENPP1 [1] (compounds at 100 µM) is given as “+3.3”. Further, the Kd at hENPP1 [2] (setting [3]) was determined as 56 ± 3 nM.

Consider `Nc1ncnc2c1ncn2[C@@H]1O[C@H](COP(=O)(O)O)[C@@H](O)[C@H]1O` [AMP], for which the ΔT m result on hENPP1 [1] (compounds at 100 µM) is “+2.7”. For the same molecule, on hENPP1 [2] (setting [3]), the Kd worked out at 103 ± 8 nM.

On to `Nc1ccn([C@@H]2O[C@H](COP(=O)(O)O)[C@@H](O)[C@H]2O)c(=O)n1` [CMP], for which the ΔT m entry at hENPP1 [1] (compounds at 100 µM) is given as “+2.1”. The Kd was 1500 ± 300 nM at hENPP1 [2] (setting [3]) and over 1000 nM at hENPP1 [2] (SPR).

In turn, `COc1ccc2c(Oc3ccc(NS(N)(=O)=O)cc3)ccnc2c1` [Ex54] had a Kd at hENPP1 [2] (setting [3]) of 100 ± 20 nM.

Turning to `Nc1nc(=O)c2ncn([C@@H]3O[C@H](COP(=O)(O)O)[C@@H](O)[C@H]3O)c2[nH]1` [GMP], the Tm on hENPP1 [1] (DSF melting curve, Supplementary Fig. S6) is 60.34 (+/-0.03). Moreover, the ΔT m result on hENPP1 [1] (compounds at 100 µM) is on record as “+1.0”. The Kd at hENPP1 [2] (setting [3]) was determined as 470 ± 60 nM.

For the molecule `COc1cc2ncnc(N3CCC(CNS(N)(=O)=O)CC3)c2cc1OC` [QPS2], at hENPP1 [1] (compounds at 100 µM), the ΔT m result was “+4.5”. Moreover, the Kd on hENPP1 [2] (setting [3]) worked out at 55 ± 6 nM.

With `Cc1cn([C@H]2C[C@H](O)[C@@H](COP(=O)(O)O)O2)c(=O)[nH]c1=O` [TMP], the ΔT m result on hENPP1 [1] (compounds at 100 µM) is “+1.2”. The figures for the Kd at hENPP1 [2] (setting [3]) and at hENPP1 [2] (SPR) were 1800 ± 300 nM and over 1000 nM, respectively.

`O=c1ccn([C@@H]2O[C@H](COP(=O)(O)O)[C@@H](O)[C@H]2O)c(=O)[nH]1` [UMP]: the ΔT m result on hENPP1 [1] (compounds at 100 µM) is reported as “+1.8”. Besides, the Kd was 1100 ± 300 nM at hENPP1 [2] (setting [3]) and over 1000 nM on hENPP1 [2] (SPR).

A word on the Kd: it is the concentration at which binding is half-saturated.
